Data from EP0800503B1, “NOVEL TRIENOIC RETINOID COMPOUNDS AND METHODS” (LIGAND PHARMACEUTICALS, INC., priority 1994, dated 1996).
Read-outs that look alike come from different tables or passages of the source.

Tests used:
RXRγ [1] = target: T1, RXRγ (Mus musculus, UniProt P28705); assay: Co-transfection assay; format: cell-based; conditions: read-out: RXRγ Pot
T1 sequence (P28705 1-463): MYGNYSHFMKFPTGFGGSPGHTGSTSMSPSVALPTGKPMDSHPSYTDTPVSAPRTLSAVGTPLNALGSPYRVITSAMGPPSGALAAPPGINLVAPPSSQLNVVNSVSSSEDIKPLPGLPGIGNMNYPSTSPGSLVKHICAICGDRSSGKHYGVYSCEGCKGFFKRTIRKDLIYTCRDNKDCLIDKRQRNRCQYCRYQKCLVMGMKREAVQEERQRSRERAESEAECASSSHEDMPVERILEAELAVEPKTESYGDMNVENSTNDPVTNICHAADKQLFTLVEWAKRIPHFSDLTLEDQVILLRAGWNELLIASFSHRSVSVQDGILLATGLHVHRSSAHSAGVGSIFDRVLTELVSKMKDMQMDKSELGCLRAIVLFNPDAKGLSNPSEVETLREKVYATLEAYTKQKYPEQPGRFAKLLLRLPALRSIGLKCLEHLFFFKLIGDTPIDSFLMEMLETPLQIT

RXRα [2] = target: T2, RXRα (Homo sapiens, UniProt P19793); assay: Co-transfection assay; format: cell-based; conditions: read-out: RXRα Pot
T2 sequence (P19793 1-462): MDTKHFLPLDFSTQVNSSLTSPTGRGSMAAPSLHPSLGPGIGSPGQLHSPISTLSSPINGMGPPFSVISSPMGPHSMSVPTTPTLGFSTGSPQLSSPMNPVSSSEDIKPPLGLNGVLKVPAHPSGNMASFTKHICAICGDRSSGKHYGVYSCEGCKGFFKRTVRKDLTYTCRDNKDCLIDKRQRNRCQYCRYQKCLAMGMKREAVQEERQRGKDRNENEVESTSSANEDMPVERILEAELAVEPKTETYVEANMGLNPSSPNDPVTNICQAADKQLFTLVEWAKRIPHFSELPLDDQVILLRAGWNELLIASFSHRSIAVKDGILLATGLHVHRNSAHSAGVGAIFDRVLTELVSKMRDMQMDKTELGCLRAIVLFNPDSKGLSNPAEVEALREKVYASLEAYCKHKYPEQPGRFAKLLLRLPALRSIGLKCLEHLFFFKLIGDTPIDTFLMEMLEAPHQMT

RARβ [3] = target: T3, RARβ (Homo sapiens, UniProt P10826); assay: biochemical
T3 sequence (P10826 1-455): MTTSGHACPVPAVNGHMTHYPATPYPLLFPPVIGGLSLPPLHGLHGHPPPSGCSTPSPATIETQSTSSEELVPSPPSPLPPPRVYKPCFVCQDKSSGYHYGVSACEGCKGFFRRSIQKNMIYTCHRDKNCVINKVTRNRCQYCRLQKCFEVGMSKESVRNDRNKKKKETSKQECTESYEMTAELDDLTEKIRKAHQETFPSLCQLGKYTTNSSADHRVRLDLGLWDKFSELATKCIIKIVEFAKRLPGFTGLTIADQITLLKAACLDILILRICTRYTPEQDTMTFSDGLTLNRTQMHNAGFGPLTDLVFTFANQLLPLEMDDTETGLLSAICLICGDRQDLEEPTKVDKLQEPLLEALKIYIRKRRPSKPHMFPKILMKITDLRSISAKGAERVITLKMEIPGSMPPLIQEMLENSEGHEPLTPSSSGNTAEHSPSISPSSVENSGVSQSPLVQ

RXRγ [4] = target: T1, RXRγ; assay: biochemical
RPMI 8226 cell line [5] = assay: Viability (tetrazolium dye, MTS); format: cell-based; conditions: Homo sapiens, 96 hours, mitochondrial function / viability
AML-193 cell line [6] = assay: Viability (tetrazolium dye, MTS); format: cell-based; conditions: Homo sapiens, 96 hours, mitochondrial function / viability
RPMI 8226 cell line [7] = assay: Incorporation of 3H-thymidine; format: cell-based; conditions: Homo sapiens, 96 hours, radiolabeled thymidine incorporation, read-out: TdR IC50
RARβ [8] = target: T4, RARβ (Homo sapiens, UniProt P10826); assay: Co-transfection assay; format: cell-based; conditions: read-out: RARβ Pot
T4 sequence (P10826 1-448 isoform P10826-2): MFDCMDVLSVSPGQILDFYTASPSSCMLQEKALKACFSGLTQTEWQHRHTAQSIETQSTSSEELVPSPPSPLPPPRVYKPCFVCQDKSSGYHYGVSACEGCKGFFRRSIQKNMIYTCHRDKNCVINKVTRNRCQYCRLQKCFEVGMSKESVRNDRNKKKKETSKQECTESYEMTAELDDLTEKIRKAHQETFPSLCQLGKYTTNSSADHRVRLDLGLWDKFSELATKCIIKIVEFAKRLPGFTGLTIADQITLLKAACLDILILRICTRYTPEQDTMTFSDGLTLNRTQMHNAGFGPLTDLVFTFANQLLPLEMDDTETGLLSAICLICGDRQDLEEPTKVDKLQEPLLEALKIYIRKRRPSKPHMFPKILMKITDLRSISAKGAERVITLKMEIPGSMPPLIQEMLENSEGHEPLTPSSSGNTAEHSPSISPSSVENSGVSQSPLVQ

ME 180 cell line [9] = assay: Viability (tetrazolium dye, MTS); format: cell-based; conditions: Homo sapiens, 96 hours, mitochondrial function / viability
RARα [10] = target: T5, RARα (Homo sapiens, UniProt P10276); assay: Receptor binding (competition with tritiated retinoids); conditions: from IC50 by Cheng-Prussof equation
T5 sequence (P10276 1-462): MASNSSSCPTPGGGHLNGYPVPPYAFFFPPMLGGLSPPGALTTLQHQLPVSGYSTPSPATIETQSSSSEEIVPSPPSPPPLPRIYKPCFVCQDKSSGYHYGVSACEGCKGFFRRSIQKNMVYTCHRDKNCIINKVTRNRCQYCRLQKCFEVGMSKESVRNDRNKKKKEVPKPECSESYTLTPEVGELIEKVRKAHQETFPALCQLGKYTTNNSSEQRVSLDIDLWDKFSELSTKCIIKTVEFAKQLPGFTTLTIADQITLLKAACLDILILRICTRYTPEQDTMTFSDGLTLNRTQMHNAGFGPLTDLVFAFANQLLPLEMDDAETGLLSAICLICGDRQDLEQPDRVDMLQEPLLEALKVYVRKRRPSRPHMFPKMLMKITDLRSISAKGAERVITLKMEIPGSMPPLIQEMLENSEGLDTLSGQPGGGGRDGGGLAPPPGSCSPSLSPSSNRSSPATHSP

RARα [11] = target: T5, RARα; assay: Co-transfection assay; format: cell-based; conditions: read-out: RARα Pot
AML-193 cell line [12] = assay: Incorporation of 3H-thymidine; conditions: Homo sapiens, 96 h, read-out: TdR IC50 (nM)
ME 180 cell line [13] = assay: Incorporation of 3H-thymidine; format: cell-based; conditions: Homo sapiens, 96 hours, radiolabeled thymidine incorporation, read-out: TdR IC50
TPA induction of ODC = assay: Ornithine decarboxylase (ODC) assay, inhibition of TPA induction of ODC; format: cell-based; conditions: concentration required to inhibit the TPA induction of ODC by 80 percent
RXRα [14] = target: T2, RXRα; assay: Receptor binding (competition with tritiated retinoids); conditions: from IC50 by Cheng-Prussof equation

EC50 (RXRγ [1]) [nM] | EC50 (RXRα [2]) [nM] | Kd (RARβ [3]) [nM] | Kd (RXRγ [4]) [nM] | IC50 (RPMI 8226 cell line [7]) [nM] | EC50 (RARβ [8]) [nM] | Kd (RARα [10]) [nM] | EC50 (RARα [11]; CV-1 cells, pRShRARα, D-MTV-LUC reporter, 40 hours, potency = EC50) [nM] | IC50 (AML-193 cell line [12]) [nM] | IC50 (ME 180 cell line [13]) [nM] | Kd (RXRα [14]) [nM] | EC50 (RARα [11]) [nM] | Compound | IC50 (RPMI 8226 cell line [5]) [nM] | IC50 (AML-193 cell line [6]) [nM] | IC50 (ME 180 cell line [9]) [nM] | IC80 (TPA induction of ODC) [nM]
> 10000 | > 10000 | 2 | 496 | 0.3 | 1 | 1 | 4 | 0.1 | 0.1 | 270 | – | CC(/C=C/C=C(\C)c1cc(C(C)(C)C)cc(C(C)(C)C)c1)=C\C(=O)O [Compound 9, (2E, 4E, 6E)-7-(3,5-Di-t-butylphenyl)-3-methylocta-2,4,6-trienoic acid] | 253 | 1000 | 1.3 | 0.93
56 | 127 | 75 | 9 | 60 | 23 | 59 | – | 0.01 | 62 | 4 | 59 | C/C(=C/C=C/C(C)=C/C(=O)O)c1cc(C(C)(C)C)cc(C(C)(C)C)c1 [Compound 10, (2E, 4E, 6Z)-7-(3,5-di-t-butylphenyl)-3-methylocta-2,4,6-trienoic acid] | 570 | 1000 | 370 | 6.62
– | – | – | – | 0.2 | – | – | – | 0.1 | 0.4 | – | – | C/C(=C\c1ccc(C(=O)O)cc1)c1ccc2c(c1)C(C)(C)CCC2(C)C [TTNPB, (E)-4-[2-(5,6,7,8-tetrahydro-5,5,8,8-tetramethyl-2-napthalenyl)-1-propenyl]benzoic acid, reference compound] | 10 | 1000 | 187 | 0.09
